Laboratory results: ChEMBL document CHEMBL4152326 (2018)

tested on: Pseudomonas aeruginosa; assay: Antimicrobial activity against Pseudomonas aeruginosa SR24 in presence of human apo-transferrin by broth microdilution method; type: functional

SMILES	MIC [µg/mL]
C[C@H](O/N=C(\C(=O)N[C@@H]1C(=O)N2C(C(=O)[O-])=C(C[N+]3(CCNC(=O)c4ccc(O)c(O)c4Cl)CCCC3)CS[C@H]12)c1csc(N)n1)C(=O)O	0.25
CC(C)(O/N=C(\C(=O)N[C@@H]1C(=O)N2C(C(=O)[O-])=C(C[N+]3(CCNC(=O)c4cc(=O)c(O)cn4O)CCCC3)CS[C@H]12)c1csc(N)n1)C(=O)O	0.125
CC(C)(O/N=C(\C(=O)N[C@@H]1C(=O)N2C(C(=O)[O-])=C(C[N+]3(CCNC(=O)c4ccc(O)c(O)c4F)CCCC3)CS[C@H]12)c1csc(N)n1)C(=O)O	0.125
Nc1nc(/C(=N/O[C@@H](CC(=O)O)C(=O)O)C(=O)N[C@@H]2C(=O)N3C(C(=O)[O-])=C(C[N+]4(CCNC(=O)c5ccc(O)c(O)c5Cl)CCCC4)CS[C@H]23)cs1	0.25
CC(C)(O/N=C(\C(=O)N[C@@H]1C(=O)N2C(C(=O)[O-])=C(C[N@+]34CCC[C@H]3CN(C(=O)c3ccc(O)c(O)c3Cl)CC4)CS[C@H]12)c1csc(N)n1)C(=O)O	0.25

tested on: Pseudomonas aeruginosa; assay: Antimicrobial activity against AmpC overproducing Pseudomonas aeruginosa SR24-12 in presence of human apo-transferrin by broth microdilution method; type: functional

SMILES	MIC [µg/mL]
C[C@H](O/N=C(\C(=O)N[C@@H]1C(=O)N2C(C(=O)[O-])=C(C[N+]3(CCNC(=O)c4ccc(O)c(O)c4Cl)CCCC3)CS[C@H]12)c1csc(N)n1)C(=O)O	0.25
CC(C)(O/N=C(\C(=O)N[C@@H]1C(=O)N2C(C(=O)[O-])=C(C[N+]3(CCNC(=O)c4cc(=O)c(O)cn4O)CCCC3)CS[C@H]12)c1csc(N)n1)C(=O)O	0.5
CC(C)(O/N=C(\C(=O)N[C@@H]1C(=O)N2C(C(=O)[O-])=C(C[N+]3(CCNC(=O)c4ccc(O)c(O)c4F)CCCC3)CS[C@H]12)c1csc(N)n1)C(=O)O	0.125
Nc1nc(/C(=N/O[C@@H](CC(=O)O)C(=O)O)C(=O)N[C@@H]2C(=O)N3C(C(=O)[O-])=C(C[N+]4(CCNC(=O)c5ccc(O)c(O)c5Cl)CCCC4)CS[C@H]23)cs1	0.25
CC(C)(O/N=C(\C(=O)N[C@@H]1C(=O)N2C(C(=O)[O-])=C(C[N@+]34CCC[C@H]3CN(C(=O)c3ccc(O)c(O)c3Cl)CC4)CS[C@H]12)c1csc(N)n1)C(=O)O	0.5

tested on: Pseudomonas aeruginosa; assay: Antimicrobial activity against IMP-1 producing Pseudomonas aeruginosa SR27001 in presence of human apo-transferrin by broth microdilution method; type: functional

SMILES	MIC [µg/mL]
C[C@H](O/N=C(\C(=O)N[C@@H]1C(=O)N2C(C(=O)[O-])=C(C[N+]3(CCNC(=O)c4ccc(O)c(O)c4Cl)CCCC3)CS[C@H]12)c1csc(N)n1)C(=O)O	1
CC(C)(O/N=C(\C(=O)N[C@@H]1C(=O)N2C(C(=O)[O-])=C(C[N+]3(CCNC(=O)c4cc(=O)c(O)cn4O)CCCC3)CS[C@H]12)c1csc(N)n1)C(=O)O	4
CC(C)(O/N=C(\C(=O)N[C@@H]1C(=O)N2C(C(=O)[O-])=C(C[N+]3(CCNC(=O)c4ccc(O)c(O)c4F)CCCC3)CS[C@H]12)c1csc(N)n1)C(=O)O	2
Nc1nc(/C(=N/O[C@@H](CC(=O)O)C(=O)O)C(=O)N[C@@H]2C(=O)N3C(C(=O)[O-])=C(C[N+]4(CCNC(=O)c5ccc(O)c(O)c5Cl)CCCC4)CS[C@H]23)cs1	1
CC(C)(O/N=C(\C(=O)N[C@@H]1C(=O)N2C(C(=O)[O-])=C(C[N@+]34CCC[C@H]3CN(C(=O)c3ccc(O)c(O)c3Cl)CC4)CS[C@H]12)c1csc(N)n1)C(=O)O	0.5

tested on: Pseudomonas aeruginosa; assay: Antimicrobial activity against VIM-2 producing Pseudomonas aeruginosa SBRKM-28 in presence of human apo-transferrin by broth microdilution method; type: functional

SMILES	MIC [µg/mL]
C[C@H](O/N=C(\C(=O)N[C@@H]1C(=O)N2C(C(=O)[O-])=C(C[N+]3(CCNC(=O)c4ccc(O)c(O)c4Cl)CCCC3)CS[C@H]12)c1csc(N)n1)C(=O)O	0.125
CC(C)(O/N=C(\C(=O)N[C@@H]1C(=O)N2C(C(=O)[O-])=C(C[N+]3(CCNC(=O)c4cc(=O)c(O)cn4O)CCCC3)CS[C@H]12)c1csc(N)n1)C(=O)O	0.063
Nc1nc(/C(=N/O[C@@H](CC(=O)O)C(=O)O)C(=O)N[C@@H]2C(=O)N3C(C(=O)[O-])=C(C[N+]4(CCNC(=O)c5ccc(O)c(O)c5Cl)CCCC4)CS[C@H]23)cs1	0.063
CC(C)(O/N=C(\C(=O)N[C@@H]1C(=O)N2C(C(=O)[O-])=C(C[N@+]34CCC[C@H]3CN(C(=O)c3ccc(O)c(O)c3Cl)CC4)CS[C@H]12)c1csc(N)n1)C(=O)O	0.25

tested on: Pseudomonas aeruginosa; assay: Antimicrobial activity against IMP-1 producing Pseudomonas aeruginosa SR27060 in presence of human apo-transferrin by broth microdilution method; type: functional

SMILES	MIC [µg/mL]
C[C@H](O/N=C(\C(=O)N[C@@H]1C(=O)N2C(C(=O)[O-])=C(C[N+]3(CCNC(=O)c4ccc(O)c(O)c4Cl)CCCC3)CS[C@H]12)c1csc(N)n1)C(=O)O	2
CC(C)(O/N=C(\C(=O)N[C@@H]1C(=O)N2C(C(=O)[O-])=C(C[N+]3(CCNC(=O)c4cc(=O)c(O)cn4O)CCCC3)CS[C@H]12)c1csc(N)n1)C(=O)O	4
CC(C)(O/N=C(\C(=O)N[C@@H]1C(=O)N2C(C(=O)[O-])=C(C[N+]3(CCNC(=O)c4ccc(O)c(O)c4F)CCCC3)CS[C@H]12)c1csc(N)n1)C(=O)O	1
Nc1nc(/C(=N/O[C@@H](CC(=O)O)C(=O)O)C(=O)N[C@@H]2C(=O)N3C(C(=O)[O-])=C(C[N+]4(CCNC(=O)c5ccc(O)c(O)c5Cl)CCCC4)CS[C@H]23)cs1	1
CC(C)(O/N=C(\C(=O)N[C@@H]1C(=O)N2C(C(=O)[O-])=C(C[N@+]34CCC[C@H]3CN(C(=O)c3ccc(O)c(O)c3Cl)CC4)CS[C@H]12)c1csc(N)n1)C(=O)O	4

tested on: Pseudomonas aeruginosa; assay: Antimicrobial activity against Pseudomonas aeruginosa 27060deltaR1 harboring deletion of R1 plasmid in presence of human apo-transferrin by broth microdilution method; type: functional

SMILES	MIC [µg/mL]
C[C@H](O/N=C(\C(=O)N[C@@H]1C(=O)N2C(C(=O)[O-])=C(C[N+]3(CCNC(=O)c4ccc(O)c(O)c4Cl)CCCC3)CS[C@H]12)c1csc(N)n1)C(=O)O	1
CC(C)(O/N=C(\C(=O)N[C@@H]1C(=O)N2C(C(=O)[O-])=C(C[N+]3(CCNC(=O)c4cc(=O)c(O)cn4O)CCCC3)CS[C@H]12)c1csc(N)n1)C(=O)O	1
CC(C)(O/N=C(\C(=O)N[C@@H]1C(=O)N2C(C(=O)[O-])=C(C[N+]3(CCNC(=O)c4ccc(O)c(O)c4F)CCCC3)CS[C@H]12)c1csc(N)n1)C(=O)O	1
Nc1nc(/C(=N/O[C@@H](CC(=O)O)C(=O)O)C(=O)N[C@@H]2C(=O)N3C(C(=O)[O-])=C(C[N+]4(CCNC(=O)c5ccc(O)c(O)c5Cl)CCCC4)CS[C@H]23)cs1	0.5
CC(C)(O/N=C(\C(=O)N[C@@H]1C(=O)N2C(C(=O)[O-])=C(C[N@+]34CCC[C@H]3CN(C(=O)c3ccc(O)c(O)c3Cl)CC4)CS[C@H]12)c1csc(N)n1)C(=O)O	1

tested on: Stenotrophomonas maltophilia; assay: Antimicrobial activity against L-1 producing Stenotrophomonas maltophilia SR21970 in presence of human apo-transferrin by broth microdilution method; type: functional

SMILES	MIC [µg/mL]
C[C@H](O/N=C(\C(=O)N[C@@H]1C(=O)N2C(C(=O)[O-])=C(C[N+]3(CCNC(=O)c4ccc(O)c(O)c4Cl)CCCC3)CS[C@H]12)c1csc(N)n1)C(=O)O	0.5
CC(C)(O/N=C(\C(=O)N[C@@H]1C(=O)N2C(C(=O)[O-])=C(C[N+]3(CCNC(=O)c4cc(=O)c(O)cn4O)CCCC3)CS[C@H]12)c1csc(N)n1)C(=O)O	0.125
CC(C)(O/N=C(\C(=O)N[C@@H]1C(=O)N2C(C(=O)[O-])=C(C[N+]3(CCNC(=O)c4ccc(O)c(O)c4F)CCCC3)CS[C@H]12)c1csc(N)n1)C(=O)O	0.25
Nc1nc(/C(=N/O[C@@H](CC(=O)O)C(=O)O)C(=O)N[C@@H]2C(=O)N3C(C(=O)[O-])=C(C[N+]4(CCNC(=O)c5ccc(O)c(O)c5Cl)CCCC4)CS[C@H]23)cs1	0.25
CC(C)(O/N=C(\C(=O)N[C@@H]1C(=O)N2C(C(=O)[O-])=C(C[N@+]34CCC[C@H]3CN(C(=O)c3ccc(O)c(O)c3Cl)CC4)CS[C@H]12)c1csc(N)n1)C(=O)O	0.5

tested on: Acinetobacter baumannii; assay: Antimicrobial activity against OXA-23/OXA-58 producing Acinetobacter baumannii SR27323 in presence of human apo-transferrin by broth microdilution method; type: functional

SMILES	MIC [µg/mL]
C[C@H](O/N=C(\C(=O)N[C@@H]1C(=O)N2C(C(=O)[O-])=C(C[N+]3(CCNC(=O)c4ccc(O)c(O)c4Cl)CCCC3)CS[C@H]12)c1csc(N)n1)C(=O)O	1
CC(C)(O/N=C(\C(=O)N[C@@H]1C(=O)N2C(C(=O)[O-])=C(C[N+]3(CCNC(=O)c4cc(=O)c(O)cn4O)CCCC3)CS[C@H]12)c1csc(N)n1)C(=O)O	0.5
CC(C)(O/N=C(\C(=O)N[C@@H]1C(=O)N2C(C(=O)[O-])=C(C[N+]3(CCNC(=O)c4ccc(O)c(O)c4F)CCCC3)CS[C@H]12)c1csc(N)n1)C(=O)O	0.5
Nc1nc(/C(=N/O[C@@H](CC(=O)O)C(=O)O)C(=O)N[C@@H]2C(=O)N3C(C(=O)[O-])=C(C[N+]4(CCNC(=O)c5ccc(O)c(O)c5Cl)CCCC4)CS[C@H]23)cs1	1
CC(C)(O/N=C(\C(=O)N[C@@H]1C(=O)N2C(C(=O)[O-])=C(C[N@+]34CCC[C@H]3CN(C(=O)c3ccc(O)c(O)c3Cl)CC4)CS[C@H]12)c1csc(N)n1)C(=O)O	2

tested on: Klebsiella pneumoniae; assay: Antimicrobial activity against KPC-2 producing Klebsiella pneumoniae ATCC BAA-1705 in presence of human apo-transferrin by broth microdilution method; type: functional

SMILES	MIC [µg/mL]
C[C@H](O/N=C(\C(=O)N[C@@H]1C(=O)N2C(C(=O)[O-])=C(C[N+]3(CCNC(=O)c4ccc(O)c(O)c4Cl)CCCC3)CS[C@H]12)c1csc(N)n1)C(=O)O	0.063
CC(C)(O/N=C(\C(=O)N[C@@H]1C(=O)N2C(C(=O)[O-])=C(C[N+]3(CCNC(=O)c4cc(=O)c(O)cn4O)CCCC3)CS[C@H]12)c1csc(N)n1)C(=O)O	0.063
CC(C)(O/N=C(\C(=O)N[C@@H]1C(=O)N2C(C(=O)[O-])=C(C[N+]3(CCNC(=O)c4ccc(O)c(O)c4F)CCCC3)CS[C@H]12)c1csc(N)n1)C(=O)O	≤ 0.031
Nc1nc(/C(=N/O[C@@H](CC(=O)O)C(=O)O)C(=O)N[C@@H]2C(=O)N3C(C(=O)[O-])=C(C[N+]4(CCNC(=O)c5ccc(O)c(O)c5Cl)CCCC4)CS[C@H]23)cs1	0.063
CC(C)(O/N=C(\C(=O)N[C@@H]1C(=O)N2C(C(=O)[O-])=C(C[N@+]34CCC[C@H]3CN(C(=O)c3ccc(O)c(O)c3Cl)CC4)CS[C@H]12)c1csc(N)n1)C(=O)O	0.063

tested on: Escherichia coli; assay: Antimicrobial activity against SHV-4 producing Escherichia coli ATCC BAA-200 in presence of human apo-transferrin by broth microdilution method; type: functional

SMILES	MIC [µg/mL]
C[C@H](O/N=C(\C(=O)N[C@@H]1C(=O)N2C(C(=O)[O-])=C(C[N+]3(CCNC(=O)c4ccc(O)c(O)c4Cl)CCCC3)CS[C@H]12)c1csc(N)n1)C(=O)O	4
CC(C)(O/N=C(\C(=O)N[C@@H]1C(=O)N2C(C(=O)[O-])=C(C[N+]3(CCNC(=O)c4cc(=O)c(O)cn4O)CCCC3)CS[C@H]12)c1csc(N)n1)C(=O)O	1
CC(C)(O/N=C(\C(=O)N[C@@H]1C(=O)N2C(C(=O)[O-])=C(C[N+]3(CCNC(=O)c4ccc(O)c(O)c4F)CCCC3)CS[C@H]12)c1csc(N)n1)C(=O)O	0.5
Nc1nc(/C(=N/O[C@@H](CC(=O)O)C(=O)O)C(=O)N[C@@H]2C(=O)N3C(C(=O)[O-])=C(C[N+]4(CCNC(=O)c5ccc(O)c(O)c5Cl)CCCC4)CS[C@H]23)cs1	1
CC(C)(O/N=C(\C(=O)N[C@@H]1C(=O)N2C(C(=O)[O-])=C(C[N@+]34CCC[C@H]3CN(C(=O)c3ccc(O)c(O)c3Cl)CC4)CS[C@H]12)c1csc(N)n1)C(=O)O	2

tested on: Pseudomonas aeruginosa; assay: Antibacterial activity against Pseudomonas aeruginosa SR27001 infected in Jcl:ICR mouse systemic infection model assessed as increase in mouse survival rate administered iv 1 to 5 hrs post infection measured over 7 days; type: functional

SMILES	ED50 [mg/kg]
CC(C)(O/N=C(\C(=O)N[C@@H]1C(=O)N2C(C(=O)[O-])=C(C[N+]3(CCNC(=O)c4cc(=O)c(O)cn4O)CCCC3)CS[C@H]12)c1csc(N)n1)C(=O)O	> 30
CC(C)(O/N=C(\C(=O)N[C@@H]1C(=O)N2C(C(=O)[O-])=C(C[N+]3(CCNC(=O)c4ccc(O)c(O)c4F)CCCC3)CS[C@H]12)c1csc(N)n1)C(=O)O	5.48
